Measurements taken from patent US8871753B2, “Macrocyclic compounds and their use as kinase inhibitors” (Incyte Corporation, priority 2008, dated 2014).
Counter-ions that a name gives are not always drawn.

How the values were obtained:
Format in all cases: biochemical
[1] = molecular target: T1, human JAK3 (a.a. 781-1124) (Homo sapiens, UniProt P52333); experiment: In vitro JAK kinase assay (HTRF, phosphorylation of a biotinylated peptide), JAK3; details: Table B1
T1 construct: JAK3 (a.a. 781-1124); His tag (N); made in house; host or cells: insect cells (baculovirus)
Method in brief: (§1)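 Kinase activity was measured as phosphorylation of a biotinylated peptide, with ATP at 90 μM for JAK1, 30 μM for JAK2 and 3 μM for JAK3. Reactions ran 1 hr at room temperature, were stopped with EDTA plus SA-APC and Eu-Py20, and were read by HTRF after 40 minutes of antibody binding.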

[2] = molecular target: T2, human JAK1 (a.a. 837-1142) (Homo sapiens, UniProt P23458); experiment: In vitro JAK kinase assay (HTRF, phosphorylation of a biotinylated peptide), JAK1; details: Table B1; read-out: JAK1 IC50
T2 construct: human JAK1 (a.a. 837-1142); His tag (N); made in house; host or cells: insect cells (baculovirus)
Method in brief: as §1

[3] = molecular target: T3, human JAK2 (a.a. 828-1132) (Homo sapiens, UniProt O60674); experiment: In vitro JAK kinase assay (HTRF, phosphorylation of a biotinylated peptide), JAK2; details: Table B1
T3 construct: JAK2 (a.a. 828-1132); His tag (N); made in house; host or cells: insect cells (baculovirus)
Method in brief: as §1

TYK2 = TYK2 (Homo sapiens, UniProt P29597); experiment: TYK2 kinase inhibition (Table A1); details: Table B1
[4] = molecular target: T4, Recombinant Human Anaplastic Lymphoma Kinase (Homo sapiens, UniProt Q9UM73); experiment: ALK HTRF kinase assay; details: Table B1; cells without percent sign
T4 construct: purchased Invitrogen, Carlsbad, Calif
Method in brief: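 IC50 was obtained from a logistic fit of signal versus log inhibitor concentration, using pre- and post-transition baselines and a Hill slope. The signal reported tyrosine phosphorylation of a biotinylated peptide by recombinant human kinase, detected as Eu-to-APC energy transfer.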

T3 sequence (O60674 828-1132): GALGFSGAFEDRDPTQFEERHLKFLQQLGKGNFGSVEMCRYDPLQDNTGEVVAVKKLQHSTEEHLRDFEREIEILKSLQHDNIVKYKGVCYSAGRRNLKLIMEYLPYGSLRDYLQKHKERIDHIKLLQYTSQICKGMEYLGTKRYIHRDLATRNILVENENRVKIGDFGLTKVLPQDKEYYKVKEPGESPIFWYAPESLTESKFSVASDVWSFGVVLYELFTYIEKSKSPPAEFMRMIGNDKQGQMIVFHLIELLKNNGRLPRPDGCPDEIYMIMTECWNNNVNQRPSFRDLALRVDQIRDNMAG
T2 sequence (P23458 849-1154): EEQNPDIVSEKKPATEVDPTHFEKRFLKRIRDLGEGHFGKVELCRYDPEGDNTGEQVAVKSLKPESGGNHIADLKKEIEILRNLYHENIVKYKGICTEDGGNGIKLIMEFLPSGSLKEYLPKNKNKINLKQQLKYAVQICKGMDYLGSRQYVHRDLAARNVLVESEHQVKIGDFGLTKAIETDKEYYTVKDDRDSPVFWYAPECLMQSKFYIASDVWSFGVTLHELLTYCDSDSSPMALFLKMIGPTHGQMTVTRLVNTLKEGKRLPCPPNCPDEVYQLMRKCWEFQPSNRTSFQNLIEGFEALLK
T1 sequence (P52333 781-1124): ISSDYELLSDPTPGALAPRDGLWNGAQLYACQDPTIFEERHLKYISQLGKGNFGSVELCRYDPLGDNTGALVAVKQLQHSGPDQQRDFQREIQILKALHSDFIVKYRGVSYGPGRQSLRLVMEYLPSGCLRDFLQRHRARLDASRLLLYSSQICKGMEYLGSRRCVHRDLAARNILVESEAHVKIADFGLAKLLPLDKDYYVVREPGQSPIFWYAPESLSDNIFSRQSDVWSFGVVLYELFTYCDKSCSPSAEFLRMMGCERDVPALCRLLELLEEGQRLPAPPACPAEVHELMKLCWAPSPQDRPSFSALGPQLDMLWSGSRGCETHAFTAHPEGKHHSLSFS
T4 sequence (Q9UM73 19-1620): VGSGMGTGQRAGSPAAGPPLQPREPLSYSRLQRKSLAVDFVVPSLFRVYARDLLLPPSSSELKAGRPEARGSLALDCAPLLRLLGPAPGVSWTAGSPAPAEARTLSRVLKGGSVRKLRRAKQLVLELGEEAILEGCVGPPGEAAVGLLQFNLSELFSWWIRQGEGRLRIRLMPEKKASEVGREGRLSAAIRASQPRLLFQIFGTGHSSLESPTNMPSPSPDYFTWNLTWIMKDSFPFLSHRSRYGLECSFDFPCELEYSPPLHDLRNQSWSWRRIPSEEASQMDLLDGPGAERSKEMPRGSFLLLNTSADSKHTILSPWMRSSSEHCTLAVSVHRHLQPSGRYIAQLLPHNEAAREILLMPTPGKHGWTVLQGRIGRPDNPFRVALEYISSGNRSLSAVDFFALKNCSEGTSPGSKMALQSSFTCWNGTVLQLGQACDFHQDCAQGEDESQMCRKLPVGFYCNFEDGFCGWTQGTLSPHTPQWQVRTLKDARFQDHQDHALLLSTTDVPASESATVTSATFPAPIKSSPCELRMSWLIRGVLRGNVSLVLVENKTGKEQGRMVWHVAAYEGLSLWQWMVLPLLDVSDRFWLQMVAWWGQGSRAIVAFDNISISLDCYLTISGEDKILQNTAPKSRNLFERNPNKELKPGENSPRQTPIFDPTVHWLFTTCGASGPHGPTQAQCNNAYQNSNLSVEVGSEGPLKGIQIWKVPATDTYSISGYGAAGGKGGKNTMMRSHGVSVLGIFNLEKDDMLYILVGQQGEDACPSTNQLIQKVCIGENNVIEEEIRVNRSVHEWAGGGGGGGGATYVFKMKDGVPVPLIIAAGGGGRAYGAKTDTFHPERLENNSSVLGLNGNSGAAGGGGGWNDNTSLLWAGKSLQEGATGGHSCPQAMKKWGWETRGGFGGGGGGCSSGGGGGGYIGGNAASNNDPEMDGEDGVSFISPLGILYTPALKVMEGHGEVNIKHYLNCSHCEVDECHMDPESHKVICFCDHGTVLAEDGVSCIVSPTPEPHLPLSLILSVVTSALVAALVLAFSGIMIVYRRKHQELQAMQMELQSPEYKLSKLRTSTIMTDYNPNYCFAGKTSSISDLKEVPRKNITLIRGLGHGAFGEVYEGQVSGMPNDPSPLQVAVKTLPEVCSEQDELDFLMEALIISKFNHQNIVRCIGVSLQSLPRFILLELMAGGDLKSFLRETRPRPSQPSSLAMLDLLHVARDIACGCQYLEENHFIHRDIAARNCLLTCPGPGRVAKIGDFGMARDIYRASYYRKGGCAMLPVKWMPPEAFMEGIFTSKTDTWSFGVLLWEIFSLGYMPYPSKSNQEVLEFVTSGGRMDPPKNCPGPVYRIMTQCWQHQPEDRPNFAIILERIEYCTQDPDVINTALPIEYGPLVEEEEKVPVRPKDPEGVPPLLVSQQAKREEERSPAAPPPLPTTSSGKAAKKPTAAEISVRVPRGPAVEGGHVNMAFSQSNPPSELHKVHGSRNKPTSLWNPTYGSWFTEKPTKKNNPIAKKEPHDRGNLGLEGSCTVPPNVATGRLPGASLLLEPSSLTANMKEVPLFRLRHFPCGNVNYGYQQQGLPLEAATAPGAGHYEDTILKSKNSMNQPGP
Sequence of TYK2 (P29597 whole entry): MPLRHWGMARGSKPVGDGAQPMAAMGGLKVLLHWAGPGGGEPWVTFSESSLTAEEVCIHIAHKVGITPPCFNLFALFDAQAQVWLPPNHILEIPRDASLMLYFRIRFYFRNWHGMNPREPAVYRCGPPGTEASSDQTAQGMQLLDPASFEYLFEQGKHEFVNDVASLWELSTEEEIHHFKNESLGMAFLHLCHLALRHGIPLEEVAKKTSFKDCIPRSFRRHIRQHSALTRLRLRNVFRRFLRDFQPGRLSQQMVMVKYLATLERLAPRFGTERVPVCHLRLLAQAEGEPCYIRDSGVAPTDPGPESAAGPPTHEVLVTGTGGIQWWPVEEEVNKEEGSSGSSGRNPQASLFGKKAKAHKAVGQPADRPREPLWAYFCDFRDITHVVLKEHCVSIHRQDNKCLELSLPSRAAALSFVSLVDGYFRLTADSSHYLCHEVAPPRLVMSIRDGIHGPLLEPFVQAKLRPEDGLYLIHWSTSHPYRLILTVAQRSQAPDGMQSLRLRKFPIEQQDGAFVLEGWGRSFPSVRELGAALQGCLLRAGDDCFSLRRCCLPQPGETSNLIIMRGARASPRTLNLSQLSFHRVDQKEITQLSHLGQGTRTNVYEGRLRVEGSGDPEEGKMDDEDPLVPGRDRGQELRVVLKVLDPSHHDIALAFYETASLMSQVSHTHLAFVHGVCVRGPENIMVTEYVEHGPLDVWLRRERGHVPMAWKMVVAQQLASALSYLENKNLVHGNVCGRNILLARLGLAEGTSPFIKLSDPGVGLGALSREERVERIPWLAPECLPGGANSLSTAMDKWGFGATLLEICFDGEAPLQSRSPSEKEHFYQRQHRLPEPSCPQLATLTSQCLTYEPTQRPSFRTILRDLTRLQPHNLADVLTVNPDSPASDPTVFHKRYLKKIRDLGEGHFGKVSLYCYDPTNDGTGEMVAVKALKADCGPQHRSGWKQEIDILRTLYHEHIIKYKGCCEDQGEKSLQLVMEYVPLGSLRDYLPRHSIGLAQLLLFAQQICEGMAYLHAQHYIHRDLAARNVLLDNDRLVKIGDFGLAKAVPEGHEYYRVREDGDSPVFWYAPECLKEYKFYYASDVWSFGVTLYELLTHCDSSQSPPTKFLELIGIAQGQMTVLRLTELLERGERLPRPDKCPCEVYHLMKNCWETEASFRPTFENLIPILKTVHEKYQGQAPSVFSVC

| IC50 [1] [nM] | IC50 [2] [nM] | IC50 [3] [nM] | IC50 (TYK2) [nM] | IC50 [4] [nM] | SMILES |
| --- | --- | --- | --- | --- | --- |
| 3.3 | 0.24 | 0.48 | 1.7 | 96 | O=C(Nc1ccc2cc1CCc1cccc(c1)Nc1ncc(Cl)c(n1)N2)c1ccccc1 [Example B29, N-[6-Chloro-2,4,8,22-tetraazatetracyclo[14.3.1.1(3,7).1(9,13)]docosa-1(20), 3(22),4,6,9(21),10,12,16,18-nonaen-12-yl]benzamide trifluoroacetate] |
| 2.9 | 0.87 | 0.78 | 2.5 | 260 | O=C(Nc1ccc2cc1CCc1cccc(c1)Nc1ncc(Cl)c(n1)N2)c1cccnc1 [Example B30, N-[6-Chloro-2,4,8,22-tetraazatetracyclo[14.3.1.1(3,7).1(9,13)]docosa-1(20), 3(22),4,6,9(21),10,12,16,18-nonaen-12-yl]nicotinamide bis(trifluoroacetate)] |
| 69 | 5.4 | 3.7 | 10 | > 10000 | Cn1ccc(C(=O)Nc2ccc3cc2CCc2cccc(c2)Nc2ncc(Cl)c(n2)N3)n1 [Example B31, N-[6-Chloro-2,4,8,22-tetraazatetracyclo[14.3.1.1(3,7).1(9,13)]docosa-1(20), 3(22),4,6,9(21),10,12,16,18-nonaen-12-yl]-1-methyl-1H-pyrazole-3-carboxamide trifluoroacetate] |
| 5.5 | 2.8 | 1.6 | 2.7 | 940 | O=C(Cc1ccccc1)Nc1ccc2cc1CCc1cccc(c1)Nc1ncc(Cl)c(n1)N2 [Example B32, N-[6-Chloro-2,4,8,22-tetraazatetracyclo[14.3.1.1(3,7).1(9,13)]docosa-1(20), 3(22),4,6,9(21),10,12,16,18-nonaen-12-yl]-2-phenylacetamide trifluoroacetate] |
| 44 | 2.1 | 2.6 | 9.7 | 820 | O=C(Nc1ccc2cc1CCc1cccc(c1)Nc1ncc(Cl)c(n1)N2)c1ccco1 [Example B33, N-[6-Chloro-2,4,8,22-tetraazatetracyclo[14.3.1.1(3,7).1(9,13)]docosa-1(20), 3(22),4,6,9(21),10,12,16,18-nonaen-12-yl]-2-furamide trifluoroacetate] |
| 13 | 0.85 | 1 | 5.6 | 470 | O=C(Nc1ccc2cc1CCc1cccc(c1)Nc1ncc(Cl)c(n1)N2)c1cccs1 [Example B34, N-[6-Chloro-2,4,8,22-tetraazatetracyclo[14.3.1.1(3,7).1(9,13)]docosa-1(20),3(22),4,6,9(21),10,12,16,18-nonaen-12-yl]thiophene-2-carboxamide trifluoroacetate] |
| 1.4 | 0.6 | 0.35 | 1.3 | 76 | Cc1ccccc1C(=O)Nc1ccc2cc1CCc1cccc(c1)Nc1ncc(Cl)c(n1)N2 [Example B35, N-[6-Chloro-2,4,8,22-tetraazatetracyclo[14.3.1.1(3,7).1(9,13)]docosa-1(20), 3(22),4,6,9(21),10,12,16,18-nonaen-12-yl]-2-methylbenzamide trifluoroacetate] |
| 42 | 13 | 7.7 | 21 | > 1000 | COc1ccccc1C(=O)Nc1ccc2cc1CCc1cccc(c1)Nc1ncc(Cl)c(n1)N2 [Example B36, N-[6-Chloro-2,4,8,22-tetraazatetracyclo[14.3.1.1(3,7).1(9,13)]docosa-1(20), 3(22),4,6,9(21),10,12,16,18-nonaen-12-yl]-2-methoxybenzamide trifluoroacetate] |
| 87 | 7.6 | 8.3 | 21 | > 10000 | O=C(Nc1ccc2cc1CCc1cccc(c1)Nc1ncc(Cl)c(n1)N2)c1ccccn1 [Example B37, N-[6-Chloro-2,4,8,22-tetraazatetracyclo[14.3.1.1(3,7).1(9,13)]docosa-1(20), 3(22),4,6,9(21),10,12,16,18-nonaen-12-yl]pyridine-2-carboxamide bis(trifluoroacetate)] |
| 4 | 1.4 | 0.26 | 0.97 | 210 | O=C(Nc1ccc2cc1CCc1cccc(c1)Nc1ncc(Cl)c(n1)N2)c1ccccc1F [Example B38, N-[6-Chloro-2,4,8,22-tetraazatetracyclo[14.3.1.1(3,7).1(9,13)]docosa-1(20), 3(22),4,6,9(21),10,12,16,18-nonaen-12-yl]-2-fluorobenzamide trifluoroacetate] |
| 2.7 | 0.2 | 0.12 | 0.66 | 86 | O=C(Nc1ccc2cc1CCc1cccc(c1)Nc1ncc(Cl)c(n1)N2)c1ccncc1 [Example B39, N-[6-Chloro-2,4,8,22-tetraazatetracyclo[14.3.1.1(3,7).1(9,13)]docosa-1(20), 3(22),4,6,9(21),10,12,16,18-nonaen-12-yl]isonicotinamide bis(trifluoroacetate)] |
| 3.6 | 1.4 | 0.55 | 2.1 | 430 | Cc1noc(C)c1C(=O)Nc1ccc2cc1CCc1cccc(c1)Nc1ncc(Cl)c(n1)N2 [Example B40, N-[6-Chloro-2,4,8,22-tetraazatetracyclo[14.3.1.1(3,7).1(9,13)]docosa-1(20), 3(22),4,6,9(21),10,12,16,18-nonaen-12-yl]-3,5-dimethylisoxazole-4-carboxamide trifluoroacetate] |
| 6.5 | 1.7 | 0.63 | 2.3 | 140 | O=C(Nc1ccc2cc1CCc1cccc(c1)Nc1ncc(Cl)c(n1)N2)c1ccccc1Cl [Example B41, 2-Chloro-N-[6-chloro-2,4,8,22-tetraazatetracyclo[14.3.1.1(3,7).1(9,13)]docosa-1(20),3(22),4,6,9(21),10,12,16,18-nonaen-12-yl]benzamide hydrochloride] |
| 7 | 1.7 | 0.75 | 3.9 | 310 | O=C(Nc1ccc2cc1CCc1cccc(c1)Nc1ncc(Cl)c(n1)N2)c1cccc(Cl)c1 [Example B42, 3-Chloro-N-[6-chloro-2,4,8,22-tetraazatetracyclo[14.3.1.1(3,7).1(9,13)]docosa-1(20),3(22),4,6,9(21),10,12,16,18-nonaen-12-yl]benzamide hydrochloride] |
| 6.7 | 0.79 | 1.1 | 2.9 | 170 | O=C(Nc1ccc2cc1CCc1cccc(c1)Nc1ncc(Cl)c(n1)N2)c1ccc(Cl)cc1 [Example B43, 4-Chloro-N-[6-chloro-2,4,8,22-tetraazatetracyclo[14.3.1.1(3,7).1(9,13)]docosa-1(20),3(22),4,6,9(21),10,12,16,18-nonaen-12-yl]benzamide hydrochloride] |
| 48 | 13 | 2.9 | 22 | 300 | O=C(Nc1ccc2cc1CCc1cccc(c1)Nc1ncc(Cl)c(n1)N2)c1cnccn1 [Example B44, N-[6-Chloro-2,4,8,22-tetraazatetracyclo[14.3.1.1(3,7).1(9,13)]docosa-1(20), 3(22),4,6,9(21),10,12,16,18-nonaen-12-yl]pyrazine-2-carboxamide bis(trifluoroacetate)] |
| 3.7 | 0.88 | 0.6 | 0.53 | 95 | CC(=O)Nc1ccc(C(=O)Nc2ccc3cc2CCc2cccc(c2)Nc2ncc(Cl)c(n2)N3)cc1 [Example B45, 4-(Acetylamino)-N-[6-chloro-2,4,8,22-tetraazatetracyclo[14.3.1.1(3,7).1(9,13)]docosa-1(20),3(22),4,6,9(21),10,12,16,18-nonaen-12-yl]benzamide trifluoroacetate] |
| 9.7 | 2.5 | 2.3 | 3.6 | 330 | Cc1cccc(C(=O)Nc2ccc3cc2CCc2cccc(c2)Nc2ncc(Cl)c(n2)N3)c1 [Example B46, N-[6-Chloro-2,4,8,22-tetraazatetracyclo[14.3.1.1(3,7).1(9,13)]docosa-1(20), 3(22),4,6,9(21),10,12,16,18-nonaen-12-yl]-3-methylbenzamide trifluoroacetate] |
| 9.5 | 0.7 | 1.5 | 3.2 | 180 | Cc1ccc(C(=O)Nc2ccc3cc2CCc2cccc(c2)Nc2ncc(Cl)c(n2)N3)cc1 [Example B47, N-[6-Chloro-2,4,8,22-tetraazatetracyclo[14.3.1.1(3,7).1(9,13)]docosa-1(20), 3(22),4,6,9(21),10,12,16,18-nonaen-12-yl]-4-methylbenzamide trifluoroacetate] |
| 2.6 | 0.96 | 0.44 | 1.7 | 160 | O=C(Nc1ccc2cc1CCc1cccc(c1)Nc1ncc(Cl)c(n1)N2)c1cccc(F)c1 [Example B48, N-[6-Chloro-2,4,8,22-tetraazatetracyclo[14.3.1.1(3,7).1(9,13)]docosa-1(20), 3(22),4,6,9(21),10,12,16,18-nonaen-12-yl]-3-fluorobenzamide trifluoroacetate] |
